Reference: patent US4283527A, “Erythromycylamine 11,12-carbonate and derivatives thereof” (Pfizer Inc., priority 1980, dated 1981)
Like-named read-outs stand apart in the source and are kept apart here.

Assays:
Hemophilus influenzae = details: strain 54A036
Klebsiella oxytoca = details: strain 53D024
Providentia stuarti = details: strain 77A013
Providentia retgerii = details: strain 77CA025
Pasteurella multocida = details: strain 59A001
Streptococcus pneumoniae = details: strain 02J012
Serratia marcescens = details: strain 63A017
Streptococcus faecalis = details: strain 02A006
Neisseria sicca = details: strain 66C000
Enterobacter aeruginosa = details: strain 67A040
Enterobacter cloacea = details: strain 67B009
Bacillus subtilis = details: strain 06A001
Morgani morgansus = details: strain 97A001

9(S)-Erythromycylamine 11,12-Carbonate
MIC (Hemophilus influenzae): 3.12 µg/mL
MIC (Klebsiella oxytoca): > 50 µg/mL
MIC (Klebsiella pneumoniae; strain 53A009): 50 µg/mL
MIC (Klebsiella pneumoniae; strain 53A031): 50 µg/mL
MIC (Providentia stuarti): > 50 µg/mL
MIC (Escherichia coli; strain 51A125): 25 µg/mL
MIC (Escherichia coli; strain 51A129): 25 µg/mL
MIC (Escherichia coli; strain 51A266): 25 µg/mL
MIC (Escherichia coli; strain 51A470): 0.78 µg/mL
MIC (Providentia retgerii): > 50 µg/mL
MIC (Pasteurella multocida): 0.39 µg/mL
MIC (Streptococcus pyogenes; strain 02C040): 0.78 µg/mL
MIC (Streptococcus pyogenes; strain 02C203): < .02 µg/mL
MIC (Streptococcus pneumoniae): 0.10 µg/mL
MIC (Staphylococcus epidermis; strain 01B037R, R = resistant to erythromycin): > 50 µg/mL
MIC (Staphylococcus epidermis; strain 01B111): 0.20 µg/mL
MIC (Staphylococcus epidermis; strain 01B126R, R = resistant to erythromycin): > 50 µg/mL
MIC (Serratia marcescens): > 50 µg/mL
MIC (Streptococcus faecalis): 0.39 µg/mL
MIC (Staphylococcus aureus; strain 01A005): 0.20 µg/mL
MIC (Staphylococcus aureus; strain 01A052): 0.20 µg/mL
MIC (Staphylococcus aureus; strain 01A110R, R = resistant to erythromycin): > 50 µg/mL
MIC (Staphylococcus aureus; strain 01A400R, R = resistant to erythromycin): 12.5 µg/mL
MIC (Neisseria sicca): 3.12 µg/mL
MIC (Enterobacter aeruginosa): 50 µg/mL
MIC (Enterobacter cloacea): > 50 µg/mL
MIC (Pseudomonas aeruginosa; strain 52A104): > 50 µg/mL
MIC (Pseudomonas aeruginosa; strain 52A663): > 50 µg/mL
MIC (Bacillus subtilis): 0.10 µg/mL
MIC (Morgani morgansus): > 50 µg/mL
